Results taken from patent US9168259B2 (GRÜNENTHAL GMBH, priority 2010, dated 2015).

Biological target: T1, KCNQ2/3 channels (Homo sapiens, UniProt O43525+O43526)
T1 construct: expressed in transfected cells
Assay: Fluorescence assay using a voltage sensitive dye (fluorimetry)
Assay type: cell-based
Settings: CHO-K1 cells expressing KCNQ2/3; for Emax: CHO-K1, plateau effect relative to saturated retigabine (50 μM) = 100%, negative values = antagonistic, read-out: Fluorimetry % efficacy (retigabine = 100%); for EC50: IC50 where % efficacy is negative, read-out: Fluorimetry EC50/IC50

T1 sequence (O43526 whole entry): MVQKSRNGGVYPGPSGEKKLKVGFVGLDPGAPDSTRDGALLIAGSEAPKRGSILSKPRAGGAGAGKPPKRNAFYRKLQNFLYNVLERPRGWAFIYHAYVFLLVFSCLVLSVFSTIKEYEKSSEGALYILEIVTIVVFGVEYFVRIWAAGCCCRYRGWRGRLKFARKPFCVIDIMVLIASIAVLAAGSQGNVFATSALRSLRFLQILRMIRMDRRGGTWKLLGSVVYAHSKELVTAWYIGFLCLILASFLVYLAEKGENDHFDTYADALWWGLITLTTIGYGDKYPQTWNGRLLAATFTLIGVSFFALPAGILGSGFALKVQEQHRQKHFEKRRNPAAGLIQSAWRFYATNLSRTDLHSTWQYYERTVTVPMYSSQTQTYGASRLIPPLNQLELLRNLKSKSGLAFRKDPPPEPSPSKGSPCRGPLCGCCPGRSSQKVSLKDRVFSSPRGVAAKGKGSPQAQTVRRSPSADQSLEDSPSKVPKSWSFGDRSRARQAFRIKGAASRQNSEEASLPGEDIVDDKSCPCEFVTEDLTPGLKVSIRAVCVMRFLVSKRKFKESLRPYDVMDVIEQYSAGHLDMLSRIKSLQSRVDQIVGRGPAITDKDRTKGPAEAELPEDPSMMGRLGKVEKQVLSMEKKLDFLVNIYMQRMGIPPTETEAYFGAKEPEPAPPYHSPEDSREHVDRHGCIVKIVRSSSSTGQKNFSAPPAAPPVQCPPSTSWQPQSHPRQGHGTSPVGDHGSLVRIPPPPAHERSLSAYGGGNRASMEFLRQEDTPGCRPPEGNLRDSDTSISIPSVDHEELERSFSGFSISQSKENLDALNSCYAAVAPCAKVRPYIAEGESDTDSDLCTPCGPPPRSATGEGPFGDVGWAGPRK
T1 sequence (O43525 whole entry): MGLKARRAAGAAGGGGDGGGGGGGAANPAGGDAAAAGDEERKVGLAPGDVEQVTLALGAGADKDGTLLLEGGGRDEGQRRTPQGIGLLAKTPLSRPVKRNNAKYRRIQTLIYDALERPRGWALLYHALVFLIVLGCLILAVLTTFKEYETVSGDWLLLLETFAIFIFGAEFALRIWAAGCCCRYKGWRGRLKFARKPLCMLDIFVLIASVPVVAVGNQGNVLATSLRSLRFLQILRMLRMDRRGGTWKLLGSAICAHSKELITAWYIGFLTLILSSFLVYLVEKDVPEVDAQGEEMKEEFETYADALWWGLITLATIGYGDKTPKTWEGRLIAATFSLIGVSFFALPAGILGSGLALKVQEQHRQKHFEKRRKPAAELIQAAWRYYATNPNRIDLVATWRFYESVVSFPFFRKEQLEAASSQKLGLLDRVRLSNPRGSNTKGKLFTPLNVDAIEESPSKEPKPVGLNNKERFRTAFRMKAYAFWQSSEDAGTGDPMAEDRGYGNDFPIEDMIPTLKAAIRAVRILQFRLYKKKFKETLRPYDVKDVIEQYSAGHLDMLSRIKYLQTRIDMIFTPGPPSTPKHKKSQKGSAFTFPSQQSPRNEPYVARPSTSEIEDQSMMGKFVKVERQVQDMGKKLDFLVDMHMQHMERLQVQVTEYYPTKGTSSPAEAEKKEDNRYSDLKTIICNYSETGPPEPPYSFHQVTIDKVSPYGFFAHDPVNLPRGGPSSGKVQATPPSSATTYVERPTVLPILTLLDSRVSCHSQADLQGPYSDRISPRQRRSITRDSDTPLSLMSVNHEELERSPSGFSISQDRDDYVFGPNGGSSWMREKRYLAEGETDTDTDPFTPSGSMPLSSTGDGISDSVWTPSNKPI

SMILES | Emax [%] | EC50 [µM]
CCSc1nc(N2CCN(C3CC3)CC2)cc(C)c1C(=O)NCc1cccc(F)c1 [Example 73, 6-(4-Cyclopropyl-piperazin-1-yl)-2-ethylsulfanyl-N-[(3-fluorophenyl)-methyl]-4-methyl-pyridine-3-carboxylic acid amide] | 67 | 3.01
CCSc1nc(N2CCC(C)(C)CC2)cc(C)c1C(=O)NCc1cccc(F)c1 [Example 74, 6-(4,4-Dimethyl-piperidin-1-yl)-2-ethylsulfanyl-N-[(3-fluorophenyl)-methyl]-4-methyl-pyridine-3-carboxylic acid amide] | 70 | 0.702
CCSc1nc(N2CCOCC2)cc(C)c1C(=O)NCC1CCCCC1 [Example 76, N-(Cyclohexyl-methyl)-2-ethylsulfanyl-4-methyl-6-morpholin-4-yl-pyridine-3-carboxylic acid amide] | 179 | 0.091
CCSc1nc(N2CCOCC2)cc(C)c1C(=O)NCCCOC [Example 78, 2-Ethylsulfanyl-N-(3-methoxy-propyl)-4-methyl-6-morpholin-4-yl-pyridine-3-carboxylic acid amide] | 31 | –
CCCCCNC(=O)c1c(C)cc(N2CCOCC2)nc1SCC [Example 81, 2-Ethylsulfanyl-4-methyl-6-morpholin-4-yl-N-pentyl-pyridine-3-carboxylic acid amide] | 163 | 0.662
CCSc1nc(N2CCOCC2)cc(C)c1C(=O)NCCOC(C)(C)C [Example 83, N-(2-tert-Butoxy-ethyl)-2-ethylsulfanyl-4-methyl-6-morpholin-4-yl-pyridine-3-carboxylic acid amide] | 182 | 2.8
CCSc1nc(N2CCOCC2)cc(C)c1C(=O)NCCCC(F)(F)F [Example 84, 2-Ethylsulfanyl-4-methyl-6-morpholin-4-yl-N-(4,4,4-trifluoro-butyl)-pyridine-3-carboxylic acid amide] | 203 | 0.357
COc1nc(N2CCOCC2)cc(C)c1C(=O)NCCCC(C)(C)C [Example 86, N-(4,4-Dimethyl-pentyl)-2-methoxy-4-methyl-6-morpholin-4-yl-pyridine-3-carboxylic acid amide] | 236 | 0.172
COc1nc(N2CCOCC2)cc(C)c1C(=O)NCc1ccccc1-c1ccccc1 [Example 88, 2-Methoxy-4-methyl-6-morpholin-4-yl-N-[(2-phenyl-phenyl)-methyl]-pyridine-3-carboxylic acid amide] | -83 | 0.253
CCOc1nc(N2CCOCC2)cc(C)c1C(=O)NCCCC(C)(C)C [Example 89, N-(4,4-Dimethyl-pentyl)-2-ethoxy-4-methyl-6-morpholin-4-yl-pyridine-3-carboxylic acid amide] | 268 | 0.138
CCOc1nc(N2CCOCC2)cc(C)c1C(=O)NCc1cc(F)cc(F)c1 [Example 90, N-[(3,5-Difluoro-phenyl)-methyl]-2-ethoxy-4-methyl-6-morpholin-4-yl-pyridine-3-carboxylic acid amide] | 134 | 0.122
CCOc1nc(N2CCOCC2)cc(C)c1C(=O)NCc1ccccc1-c1ccccc1 [Example 92, 2-Ethoxy-4-methyl-6-morpholin-4-yl-N-[(2-phenyl-phenyl)-methyl]-pyridine-3-carboxylic acid amide] | -79 | 0.128
COc1nc(N2CCCOCC2)cc(C)c1C(=O)NCc1cccc(F)c1 [Example 98, N-[(3-Fluorophenyl)-methyl]-2-methoxy-4-methyl-6-([1,4]oxazepan-4-yl)-pyridine-3-carboxylic acid amide] | 146 | 2.31
CCOc1nc(N2CCCOCC2)cc(C)c1C(=O)NCc1cccc(F)c1 [Example 99, 2-Ethoxy-N-[(3-fluorophenyl)-methyl]-4-methyl-6-([1,4]oxazepan-4-yl)-pyridine-3-carboxylic acid amide] | 134 | 0.899
CCSc1nc(N2CCOCC2)cc(C)c1C(=O)NCCOC(C)C [Example 103, 2-Ethylsulfanyl-N-(2-isopropoxy-ethyl)-4-methyl-6-morpholin-4-yl-pyridine-3-carboxylic acid amide] | 142 | 4.52
CCSc1nc(N2CCOCC2)cc(C)c1C(=O)NCCC(C)(C)C [Example 104, N-(3,3-Dimethyl-butyl)-2-ethylsulfanyl-4-methyl-6-morpholin-4-yl-pyridine-3-carboxylic acid amide] | 100 | 1.4
CCSc1nc(N2CCOCC2)cc(C)c1C(=O)NCCCC1CCCC1 [Example 105, N-(3-Cyclopentyl-propyl)-2-ethylsulfanyl-4-methyl-6-morpholin-4-yl-pyridine-3-carboxylic acid amide] | 207 | 0.179
CCSc1nc(N2CCOCC2)cc(C)c1C(=O)NCCC1CCCCC1 [Example 106, N-(2-Cyclohexyl-ethyl)-2-ethylsulfanyl-4-methyl-6-morpholin-4-yl-pyridine-3-carboxylic acid amide] | 160 | 0.172

Results, then the compound that gave them:

Emax [%] | EC50 [µM] | SMILES
135 | 0.061 | CCSc1nc(N2CCOCC2)cc(C)c1C(=O)NCc1ccc(SC(F)(F)F)cc1 [Example 75, 2-Ethylsulfanyl-4-methyl-6-morpholin-4-yl-N-[[4-(trifluoromethylsulfanyl)-phenyl]-methyl]-pyridine-3-carboxylic acid amide]
40 | – | CCSc1nc(N2CCOCC2)cc(C)c1C(=O)NCCOC [Example 77, 2-Ethylsulfanyl-N-(2-methoxy-ethyl)-4-methyl-6-morpholin-4-yl-pyridine-3-carboxylic acid amide]
147 | 2.17 | CCCCNC(=O)c1c(C)cc(N2CCOCC2)nc1SCC [Example 80, N-Butyl-2-ethylsulfanyl-4-methyl-6-morpholin-4-yl-pyridine-3-carboxylic acid amide]
117 | 0.118 | CCSc1nc(N2CCOCC2)cc(C)c1C(=O)NCc1ccc(F)c(C(F)(F)F)c1 [Example 82, 2-Ethylsulfanyl-N-[[4-fluoro-3-(trifluoromethyl)-phenyl]-methyl]-4-methyl-6-morpholin-4-yl-pyridine-3-carboxylic acid amide]
-61 | 0.107 | CCSc1nc(N2CCOCC2)cc(C)c1C(=O)NCc1ccc(F)cc1-c1ccc(F)cc1 [Example 85, 2-Ethylsulfanyl-N-[[4-fluoro-2-(4-fluorophenyl)-phenyl]-methyl]-4-methyl-6-morpholin-4-yl-pyridine-3-carboxylic acid amide]
138 | 0.311 | COc1nc(N2CCOCC2)cc(C)c1C(=O)NCc1ccc(F)c(F)c1 [Example 87, N-[(3,4-Difluoro-phenyl)-methyl]-2-methoxy-4-methyl-6-morpholin-4-yl-pyridine-3-carboxylic acid amide]
127 | 0.117 | CCOc1nc(N2CCOCC2)cc(C)c1C(=O)NCc1ccc(F)c(F)c1 [Example 91, N-[(3,4-Difluoro-phenyl)-methyl]-2-ethoxy-4-methyl-6-morpholin-4-yl-pyridine-3-carboxylic acid amide]
103 | 0.054 | CCSc1nc(N2CCOCC2)cc(C)c1C(=O)NCc1cc(F)cc(C(F)(F)F)c1 [Example 93, 2-Ethylsulfanyl-N-[[3-fluoro-5-(trifluoromethyl)-phenyl]-methyl]-4-methyl-6-morpholin-4-yl-pyridine-3-carboxylic acid amide]
111 | 0.039 | CCSc1nc(N2CCOCC2)cc(C)c1C(=O)NCc1cccc(C(F)(F)F)c1F [Example 94, 2-Ethylsulfanyl-N-[[2-fluoro-3-(trifluoromethyl)-phenyl]-methyl]-4-methyl-6-morpholin-4-yl-pyridine-3-carboxylic acid amide]
62 | 0.056 | CCSc1nc(N2CCOCC2)cc(C)c1C(=O)NCc1cc(C(F)(F)F)ccc1F [Example 95, 2-Ethylsulfanyl-N-[[2-fluoro-5-(trifluoromethyl)-phenyl]-methyl]-4-methyl-6-morpholin-4-yl-pyridine-3-carboxylic acid amide]
173 | 1.1 | CCSc1nc(N2CCCOCC2)cc(C)c1C(=O)NCc1cccc(F)c1 [Example 96, 2-Ethylsulfanyl-N-[(3-fluorophenyl)-methyl]-4-methyl-6-([1,4]oxazepan-4-yl)-pyridine-3-carboxylic acid amide]
136 | 0.067 | CCSc1nc(N2CCOCC2)cc(C)c1C(=O)NCc1ccc(OC(F)(F)F)cc1 [Example 97, 2-Ethylsulfanyl-4-methyl-6-morpholin-4-yl-N-[[4-(trifluoromethyloxy)-phenyl]methyl]-pyridine-3-carboxylic acid amide]
98 | 0.118 | CCSc1nc(N2CCOCC2)cc(C)c1C(=O)NCc1cccc(F)c1F [Example 100, N-[(2,3-Difluoro-phenyl)-methyl]-2-ethylsulfanyl-4-methyl-6-morpholin-4-yl-pyridine-3-carboxylic acid amide]
100 | 0.133 | CCSc1nc(N2CCOCC2)cc(C)c1C(=O)NCc1cc(F)ccc1F [Example 101, N-[(2,5-Difluoro-phenyl)-methyl]-2-ethylsulfanyl-4-methyl-6-morpholin-4-yl-pyridine-3-carboxylic acid amide]
138 | 1.22 | CCSc1nc(N2CCOCC2)cc(C)c1C(=O)NCc1cccc(C#N)c1 [Example 102, N-[(3-Cyano-phenyl)-methyl]-2-ethylsulfanyl-4-methyl-6-morpholin-4-yl-pyridine-3-carboxylic acid amide]
90 | 0.088 | CCSc1nc(N2CCOCC2)cc(C)c1C(=O)NCc1ccc(F)cc1F [Example 107, N-[(2,4-Difluoro-phenyl)-methyl]-2-ethylsulfanyl-4-methyl-6-morpholin-4-yl-pyridine-3-carboxylic acid amide]
